Laboratory results taken from the supplement of paper PMC10307832.

How the values were obtained:
Test in all cases: relative viability (nuclei count vs DMSO), 5 days (fraction); higher = more cells survive
Linifanib + Foretinib = compound: Cc1ccc(F)c(NC(=O)Nc2ccc(-c3cccc4[nH]nc(N)c34)cc2)c1 [Linifanib] + COc1cc2c(Oc3ccc(NC(=O)C4(C(=O)Nc5ccc(F)cc5)CC4)cc3F)ccnc2cc1OCCCN1CCOCC1 [Foretinib] (partner 0.25 µM)
Procedure, shortened: (§1)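 Relative viability equals treated-well nuclei counts divided by vehicle-well nuclei counts. Counts came from 4× images of lung cancer cell lines grown in 1536-well plates for 5 days after pin-tool dosing on the day after seeding. Dosing used one drug alone or a fixed anchor-drug dose plus five library-drug doses (not always all listed) in √10 steps, and values are medians of duplicate plates.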

Linifanib + Pemetrexed = compound: Cc1ccc(F)c(NC(=O)Nc2ccc(-c3cccc4[nH]nc(N)c34)cc2)c1 [Linifanib] + Nc1nc2[nH]cc(CCc3ccc(C(=O)N[C@@H](CCC(=O)O)C(=O)O)cc3)c2c(=O)[nH]1 [Pemetrexed] (partner 0.2 µM)
Procedure, shortened: as §1

Linifanib + Navitoclax = compound: Cc1ccc(F)c(NC(=O)Nc2ccc(-c3cccc4[nH]nc(N)c34)cc2)c1 [Linifanib] + CC1(C)CCC(c2ccc(Cl)cc2)=C(CN2CCN(c3ccc(C(=O)NS(=O)(=O)c4ccc(N[C@H](CCN5CCOCC5)CSc5ccccc5)c(S(=O)(=O)C(F)(F)F)c4)cc3)CC2)C1 [Navitoclax] (partner 0.5 µM)
Procedure, shortened: as §1

Linifanib + Dasatinib = compound: Cc1ccc(F)c(NC(=O)Nc2ccc(-c3cccc4[nH]nc(N)c34)cc2)c1 [Linifanib] + Cc1nc(Nc2ncc(C(=O)Nc3c(C)cccc3Cl)s2)cc(N2CCN(CCO)CC2)n1 [Dasatinib] (partner 0.075 µM)
Procedure, shortened: as §1

Linifanib + Decitabine = compound: Cc1ccc(F)c(NC(=O)Nc2ccc(-c3cccc4[nH]nc(N)c34)cc2)c1 [Linifanib] + Nc1ncn([C@H]2C[C@H](O)[C@@H](CO)O2)c(=O)n1 [Decitabine] (partner 2 µM)
Procedure, shortened: as §1

Linifanib + Linsitinib = compound: Cc1ccc(F)c(NC(=O)Nc2ccc(-c3cccc4[nH]nc(N)c34)cc2)c1 [Linifanib] + C[C@]1(O)C[C@@H](c2nc(-c3ccc4ccc(-c5ccccc5)nc4c3)c3c(N)nccn32)C1 [Linsitinib] (partner 1 µM)
Procedure, shortened: as §1

| Cell Line | relative viability (Linifanib + Foretinib; first compound 0.03162 µM) | relative viability (Linifanib + Foretinib; first compound 0.1 µM) | relative viability (Linifanib + Foretinib; first compound 0.3162 µM) | relative viability (Linifanib + Pemetrexed; first compound 0.03162 µM) | relative viability (Linifanib + Pemetrexed; first compound 0.1 µM) | relative viability (Linifanib + Pemetrexed; first compound 0.3162 µM) | relative viability (Linifanib + Navitoclax; first compound 0.03162 µM) | relative viability (Linifanib + Navitoclax; first compound 0.1 µM) | relative viability (Linifanib + Navitoclax; first compound 0.3162 µM) | relative viability (Linifanib + Dasatinib; first compound 0.03162 µM) | relative viability (Linifanib + Dasatinib; first compound 0.1 µM) | relative viability (Linifanib + Dasatinib; first compound 0.3162 µM) | relative viability (Linifanib + Decitabine; first compound 0.03162 µM) | relative viability (Linifanib + Decitabine; first compound 0.1 µM) | relative viability (Linifanib + Decitabine; first compound 0.3162 µM) | relative viability (Linifanib + Linsitinib; first compound 0.03162 µM) | relative viability (Linifanib + Linsitinib; first compound 0.1 µM) | relative viability (Linifanib + Linsitinib; first compound 0.3162 µM) |
| --- | --- | --- | --- | --- | --- | --- | --- | --- | --- | --- | --- | --- | --- | --- | --- | --- | --- | --- |
| NCI-H838 | 1.05 | 1.08 | 1.02 | 0.225 | 0.27 | 0.244 | 1.19 | 1.15 | 1.16 | 0.286 | 0.282 | 0.27 | 0.521 | 0.472 | 0.443 | 0.973 | 1.14 | 0.901 |
| A-427 | 1.02 | 1.34 | 1.02 | 0.96 | 0.992 | 0.945 | 1.07 | 0.986 | 0.998 | 0.715 | 0.835 | 0.798 | 0.583 | 0.612 | 0.579 | 1.1 | 1.11 | 1.08 |
| NCI-H2347 | 1.09 | 1.25 | 0.782 | 0.434 | 0.431 | 0.425 | 0.826 | 1.01 | 0.733 | 0.356 | 0.399 | 0.284 | 0.622 | 0.616 | 0.598 | 0.994 | 0.96 | 0.954 |
| EMC-BAC-2 | 1.02 | 1.05 | 1.03 | 0.456 | 0.448 | 0.472 | 1.19 | 1.17 | 1.15 | 0.341 | 0.347 | 0.406 | 1.01 | 1.03 | 0.951 | 0.818 | 0.877 | 0.762 |
| EKVX | 0.787 | 0.886 | 0.686 | 0.388 | 0.413 | 0.399 | 0.973 | 1.15 | 0.868 | 0.662 | 0.662 | 0.547 | 0.314 | 0.359 | 0.35 | 1.11 | 1.03 | 0.868 |
| NCI-H1651 | 0.774 | 1.04 | 0.66 | 0.648 | 0.612 | 0.561 | 0.91 | 1.24 | 0.999 | 0.499 | 0.393 | 0.398 | 0.616 | 0.592 | 0.517 | 0.997 | 1.14 | 0.9 |
| LCLC-97TM1 | 0.865 | 0.961 | 0.852 | 0.202 | 0.16 | 0.146 | 0.436 | 0.417 | 0.321 | 0.887 | 1.04 | 0.678 | 0.222 | 0.228 | 0.249 | 0.17 | 0.214 | 0.171 |
| SW 1573 | 0.897 | 1.21 | 0.843 | 0.857 | 0.879 | 0.777 | 1.03 | 1.28 | 0.897 | 0.578 | 0.931 | 0.539 | 0.514 | 0.604 | 0.584 | 0.853 | 0.845 | 0.743 |
| SK-MES-1 | 0.986 | 1 | 0.827 | 1 | 0.964 | 0.962 | 1.18 | 1.25 | 1.04 | 0.336 | 0.455 | 0.388 | 0.352 | 0.408 | 0.36 | 1.04 | 1.12 | 1.03 |
| NCI-H2009 | 1.24 | 1.25 | 1.15 | 1.08 | 0.989 | 0.917 | 1.13 | 1.14 | 1.13 | 0.323 | 0.358 | 0.304 | 0.371 | 0.41 | 0.378 | 1.15 | 1.19 | 1.13 |
| COR-L23 | 0.952 | 0.951 | 0.959 | 0.197 | 0.19 | 0.195 | 1.05 | 1.04 | 0.857 | 0.532 | 0.647 | 0.418 | 0.448 | 0.455 | 0.396 | 0.933 | 1.01 | 0.815 |
| 201T | 0.968 | 1.22 | 1.1 | 0.317 | 0.309 | 0.317 | 1.2 | 1.23 | 1.21 | 0.571 | 0.623 | 0.559 | 0.867 | 0.862 | 0.891 | 1.01 | 1.02 | 1.05 |
| NCI-H322M | 0.939 | 1.06 | 1.02 | 0.598 | 0.589 | 0.65 | 1.25 | 1.14 | 1.17 | 0.253 | 0.256 | 0.216 | 0.732 | 0.697 | 0.77 | 1 | 0.865 | 0.838 |
| HARA | 1.09 | 1.06 | 0.835 | 0.258 | 0.261 | 0.306 | 1.16 | 1.12 | 1.05 | 0.234 | 0.335 | 0.285 | 0.599 | 0.61 | 0.61 | 0.991 | 0.931 | 0.939 |
| NCI-H2087 | 1.08 | 1.26 | 0.993 | 0.661 | 0.726 | 0.529 | 0.959 | 1.08 | 0.95 | 1.12 | 1.22 | 0.787 | 0.31 | 0.248 | 0.268 | 1.14 | 1.02 | 0.764 |
| H3255 | 1 | 0.946 | 0.721 | 0.555 | 0.586 | 0.529 | 0.557 | 0.642 | 0.562 | 0.457 | 0.364 | 0.364 | 0.559 | 0.667 | 0.615 | 0.976 | 1.14 | 0.845 |
| LXF-289 | 1.09 | 0.975 | 0.936 | 0.97 | 0.906 | 0.853 | 0.936 | 0.953 | 0.883 | 0.29 | 0.288 | 0.236 | 0.376 | 0.355 | 0.326 | 0.989 | 1.02 | 0.972 |
